Entries after “also recorded” stand apart in the source; their conditions may differ. Read-outs that look alike come from different tables or passages of the source.
How the values were obtained:
Type in all cases: cell-based, human
A549 cells [1] = test: DMR modulation of marker-induced responses (two-step assay) in A549 cells; details: for modulation of the pinacidil response in A549 cells: compound pretreatment ~1 hr (10 micromolar), then pinacidil 10 micromolar; for modulation of the forskolin response (P-DMR) in A549 cells / modulation of the histamine response (early and late P-DMR) in A549 cells: inhibitor 10 micromolar; for modulation of the forskolin response (P-DMR) in A549 cells: forskolin 16 micromolar; for modulation of the histamine response (early and late P-DMR) in A549 cells: histamine 10 micromolar
Procedure: (§1) The index was generated after normalizing each marker-induced DMR signal in the presence of the inhibitor to its corresponding signal in the absence of the inhibitor. The percentage of modulation for each marker by the inhibitor was plotted as a function of the marker. As shown from left to right in a sequential order, the DMR events used for the basis of the modulation percentage calculation are: the N-DMR (50 min after stimulation) for pinacidil in A549, the P-DMR (50 min after stimulation) for forskolin in A549, the early P-DMR event (˜10 min after histamine stimulation) and the late P-DMR event (˜30 min after histamine stimulation) for histamine in A549, and the early P-DMR event (˜5 min after EGF stimulation) and the subsequent N-DMR event (˜30 min after EGF stimulation) for EGF in A431 cells. In all cases, the amplitudes of respective DMR events were used as the basis to calculate the percentages of modulation by the PI3K inhibitors. The same procedure was used to generate FIGS. 8 to 14.
(§2) Cells were typically grown using ˜1 to 2×10^4 cells per well at passage 3 to 15 suspended in 50 μl of the corresponding culture medium in the biosensor microplate, and were cultured at 37° C. under air/5% CO2 for ˜1 day. Except for A431 which underwent one day culture followed by one starvation in serum free medium, all other cells were directly assayed without starvation. The confluency for all cells at the time of assays was ˜95% to 100%.
(§3) For biosensor cellular assays, molecule solutions were made by diluting the stored concentrated solutions with the HBSS (1× Hanks balanced salt solution, plus 20 mM Hepes, pH 7.1), and transferred into a 384 well polypropylene molecule storage plate to prepare a molecule source plate. Both molecule and marker source plates were made separately when a two-step assay was performed. In parallel, the cells were washed twice with the HBSS and maintained in 30 μl of the HBSS to prepare a cell assay plate. Both the cell assay plate and the molecule and marker source plate(s) were then incubated in the hotel of the reader system. After ˜1 hr of incubation the baseline wavelengths of all biosensors in the cell assay microplate were recorded and normalized to zero. Afterwards, a 2 to 10 minute continuous recording was carried out to establish a baseline, and to ensure that the cells reached a steady state. Cellular responses were then triggered by pipetting 10 μl of the marker solutions into the cell assay plate using the on-board liquid handler.
(§4) To study the influence of molecules on a marker-induced response, a second stimulation with the marker at a fixed dose (typically at EC80 or EC100) was applied. The resonant wavelengths of all biosensors in the microplate were normalized again to establish a second baseline, right before the second stimulation. The two stimulations were usually separated by ˜1 hr.
(§5) All studies were carried out at a controlled temperature (28° C.). At least two independent sets of experiments, each with at least three replicates, were performed.

A431 cells = test: DMR modulation of the EGF-induced response in quiescent A431 cells
Procedure: as §1, §2, §3, §4, §5

A549 cells [2] = test: Label-free RWG (Epic) biosensor DMR assay, agonism mode, A549 cells; details: for EC50: Homo sapiens; for maximal amplitude / maximal response of the N-DMR signal: n=4
Procedure: as §2
(§6) Epic® beta version wavelength interrogation system (Corning Inc., Corning, N.Y.) was used for whole cell sensing. This system consists of a temperature-control unit, an optical detection unit, and an on-board liquid handling unit with robotics. The detection unit is centered on integrated fiber optics, and enables kinetic measures of cellular responses with a time interval of ˜15 sec.
as §3, §5

A549 and A431 cells = test: DMR index against panels of markers across A549 and A431 cells, compared with LY294002; details: markers pinacidil, forskolin, histamine (A549), EGF (A431)
Procedure: as §1
Optical biosensors such as RWG biosensor measure dynamic mass redistribution (DMR) signals of cells upon stimulation. A DMR index contains the primary DMR profile or signal of a chemical acting on a panel of live cells, and the modulation index of the chemical against panels of markers across the panel of cells, a panel of markers for each cell line. […]

HepG2 cells [3] = test: DMR modulation of the ODN2006-induced response in HepG2 cells; details: inhibitor 10 micromolar, ODN2006 500 nM
Procedure: as §2
as §3, with “Cellular responses were then triggered by pipetting 10 μl of the marker solutions into the cell assay plate using the on-board liquid handler.” left out

HepG2 cells [4] = test: Label-free RWG biosensor DMR assay, agonism mode, HepG2 cells; details: primary profile
Procedure: as §2, §6
For biosensor cellular assays, molecule solutions were made by diluting the stored concentrated solutions with the HBSS (1× Hanks balanced salt solution, plus 20 mM Hepes, pH 7.1), and transferred into a 384 well polypropylene molecule storage plate to prepare a molecule source plate. […] Both the cell assay plate and the molecule and marker source plate(s) were then incubated in the hotel of the reader system. After ˜1 hr of incubation the baseline wavelengths of all biosensors in the cell assay microplate were recorded and normalized to zero. […]

A549 and HepG2 cells = test: Biosensor index against panel of cells/markers (A549 and HepG2), compared with Y-27632
Excerpt: It is well known that many kinas inhibitors often display polypharmacology (i.e., many kinase inhibitors can modulate the activity of multi-targets in a cell). In addition, drugs including kinase inhibitors often display cell- or tissue-dependent phenotypic pharmacology, due to the many cellular factors including post-transcriptional modifications, compartmentalization of signaling cascades, alteration of key gene products in the pathway, receptor oligomerization, and constitutive receptor activity. […] Thus, the primary modes of action of a drug or drug candidate molecule, including ROCK inhibitors, are a sum of at least several types of pharmacology—polypharmacology, phenotypic pharmacology and systems (integrative) pharmacology. To correctly detect the phenotypic pharmacology of a ROCK inhibitor that acts via the inhibition of ROCK activity in live cell, one needs a panel of cells as well as panels of markers using the biosensor cellular assays. Thus, a ROCK inhibitor responsive cell line, A549, and a ROCK inhibitor unresponsive cell line, HepG2, were chosen as model systems. […]

[5] = ~30 min after histamine stimulation
[6] = inhibitor 10 micromolar, EGF 32 nM

Molecule | modulation of the P-DMR event of the EGF response in A431 cells (A431 cells; [6]) | modulation of the pinacidil response in A549 cells (A549 cells [1]) | modulation of the forskolin response (P-DMR) in A549 cells (A549 cells [1]) | modulation of the histamine response (early and late P-DMR) in A549 cells (A549 cells [1]) | further results
Cc1cc(C(C)Nc2ccccc2)c2nc(N3CCOCC3)cc(=O)n2c1 (racemic) [PI3Kβ inhibitor II, (+/−)-7-Methyl-2-(morpholin-4-yl)-9-(1-phenylaminoethyl)-pyridol[1,2-a]-pyrimidin-4-one] | significantly attenuated | – | – | – | modulation of the late P-DMR event of the histamine response in A549 cells (A549 cells [1]; [5]): slightly suppression
O=c1cc(N2CCOCC2)oc2c1ccc1ccccc12 [DNA-PK inhibitor II, 2-(Morpholin-4-yl)-benzo[h]chromen-4-one] | small attenuation | little or not modulation | significant potentiation | significant potentiation | –
CC(=O)c1ccc(N2CCOCC2)cc1O [DNA-PK inhibitor III, 1-(2-Hydroxy-4-morpholin-4-yl-phenyl)ethanone] | small attenuation | little or not modulation | significant potentiation | significant potentiation | –
CC1CNCCN1S(=O)(=O)c1cccc2cnccc12 (stereo not drawn) [H-7] | – | complete or significant attenuation | – | – | –
CNCCNS(=O)(=O)c1cccc2cnccc12 [H-8] | – | complete or significant attenuation | – | – | –
NCCNS(=O)(=O)c1cccc2cnccc12 [H-9] | – | complete or significant attenuation | – | – | –
O=S(=O)(NCCNC/C=C/c1ccc(Br)cc1)c1cccc2cnccc12 [H-89] | – | complete or significant attenuation | – | – | –
NC(N)=NCCNS(=O)(=O)c1cccc2cnccc12 [HA-1004] | – | complete or significant attenuation | – | – | –
O=S(=O)(c1cccc2cnccc12)N1CCCNCC1 [HA-1077] | – | complete or significant attenuation | – | – | –
O=c1cc(N2CCOCC2)oc2c(-c3ccccc3)cccc12 [LY294002] | – | – | – | – | EC50 (A549 cells [2]; 50 min, N-DMR amplitudes ~50 min after stimulation, n=4, read-out: EC50 of the N-DMR signal): 14.7 ± 1.5 µM; maximal amplitude / maximal response of the N-DMR signal (A549 cells [2]): ~400 picometers; modulation of the pinacidil response (N-DMR) (A549 cells [1]; N-DMR 50 min after stimulation, marker signal with inhibitor normalized to signal without, FIG. 7C): −9%; modulation of the forskolin response (P-DMR) (A549 cells [1]; P-DMR 50 min after stimulation, FIG. 7C): +33%; modulation of the histamine response, early P-DMR (A549 cells [1]; ~10 min after histamine stimulation, FIG. 7C): +41%; modulation of the histamine response, late P-DMR (A549 cells [1]; ~30 min after histamine stimulation, FIG. 7C): +90%
O=c1cc(N2CCNCC2)oc2c(-c3ccccc3)cccc12 [LY303511] | – | – | – | – | type of DMR index compared with the PI3K inhibitor LY294002 (A549 and A431 cells): completely distinct type of DMR index
O=C1NC(=O)C(=Cc2ccc3nccnc3c2)S1 [PI3Kγ inhibitor, 5-quinoxalin-6-ylmethylene-thiazolindine-2,4-dione] | small attenuation | little or not modulation | significant potentiation | significant potentiation | modulation of the late P-DMR event of the histamine response in A549 cells (A549 cells [1]; [5]): moderate potentiation
Oc1cccc(-c2nc(N3CCOCC3)c3oc4ncccc4c3n2)c1 [PI-103] | small attenuation | little or not modulation | significant potentiation | significant potentiation | –
c1ccc2c(-c3ccncc3)c[nH]c2c1 [Rho kinase inhibitor III Rockout] | – | complete or significant attenuation | – | – | –
CC(N/C(=N\C#N)Nc1ccncc1)C(C)(C)C (stereo not drawn) [pinacidil] | – | – | – | – | EC50 (A549 cells [2]; stimulation with pinacidil, read-out: EC50 of the biosensor signal): ~5 µM
O=c1c(O)c(-c2ccc(O)c(O)c2)oc2cc(O)cc(O)c12 [quercetin] | small attenuation | little or not modulation | potentiated; also recorded: significant potentiation | potentiated; also recorded: significant potentiation | modulation index score, forskolin (A549 cells [1]; score +1 per 10% modulation): 2; modulation index score, histamine early P-DMR (A549 cells [1]; score +1 per 10% modulation): 4; modulation index score, histamine late P-DMR (A549 cells [1]; score +1 per 10% modulation): 9; modulation index score, pinacidil (A549 cells [1]; score +1 per 10% positive modulation, opposite for negative): −1; modulation of the N-DMR event of the EGF response in A431 cells (A431 cells; [6]): attenuated; modulation index score, EGF N-DMR (A431 cells; score +1 per 10% modulation): −5; modulation index score, EGF P-DMR (A431 cells; score +1 per 10% modulation): 0; modulation of the ODN2006 DMR signal in HepG2 cells (HepG2 cells [3]): slightly attenuated
Oc1ccc(C=Cc2cc(O)cc(O)c2)cc1 [resveratrol] | small attenuation | little or not modulation | significant potentiation | significant potentiation | –
COC[C@H]1OC(=O)c2coc3c2[C@@]1(C)C1=C(C3=O)[C@@H]2CCC(=O)[C@@]2(C)C[C@H]1OC(C)=O [wortmannin] | – | – | – | – | EC50 (A549 cells [2]; 50 min, N-DMR amplitudes ~50 min after stimulation, n=4, read-out: EC50 of the DMR signal): 0.0727 ± 0.0034 µM; maximal amplitude / maximal response of the N-DMR signal (A549 cells [2]): ~700 picometers
CDK1/2 inhibitor III | – | – | – | – | DMR (biosensor) signal of the compound in A549 cells (A549 cells [2]; primary profile): negative DMR signal; DMR (biosensor) signal of the compound in HepG2 cells (HepG2 cells [4]): small decaying signal; modulation of the biosensor signals of the markers in the panel (A549 and HepG2 cells; pinacidil, poly(IC), PMA, SLIGKV-amide, forskolin, histamine (A549), ODN2006 (HepG2)): attenuated the biosensor signals of most of markers; biosensor index compared with the Y-27632 biosensor index (A549 and HepG2 cells; primary profiles in A549 and HepG2 and modulation index against the panel of markers): quite distinct biosensor index
Rho kinase inhibitor IV | – | complete or significant attenuation | – | – | –

From patent US20120289432A1, “PI3K MODULATORS, RHO KINASE MODULATORS AND METHODS OF IDENTIFYING AND USING SAME” (Corning Incorporated, priority 2009, published 2012)
